Laboratory results published in patent US20090124539A1, “Methods of treating infection” (priority 2007, published 2009).
Converted amounts (≈) assume the structure as drawn.

Legend:
[1] = test system: Streptococcus pneumoniae; assay: MIC, broth microdilution (CLSI); type: cell-based
Protocol: (§1) The solvent for all of the compounds was deionized water (DIW), and all of the compounds dissolved in the solvent. The stock solutions were allowed to stand in DIW for one hour at room temperature prior to testing to allow time for auto-sterilization.
(§2) The test organisms were originally received from clinical sources, or from the American Type Culture Collection. When received, the organisms were sub-cultured onto an appropriate agar medium. Following incubation, colonies were harvested from these plates and cell suspensions prepared and frozen at −80° C. On the day prior to assay, a frozen vial of each culture was thawed and the contents were streaked for isolation onto either Tryptic Soy Agar (Becton Dickinson, Sparks, Md.) or Tryptic Soy Agar (Enhanced Hemolysis; Becton Dickinson) supplemented with 5% sheep blood for streptococci. The agar plates were incubated overnight at 35° C. Staphylococcus aureus ATCC 29213 and Enterococcus faecalis ATCC 29212 were included as quality control isolates in the assay.
(§3) The test medium for the broth microdilution testing was Mueller Hinton II broth (MHB II; BBL# 212322, Lot # 6024003, Becton Dickinson). The broth was prepared at 1.05× normal weight/volume to offset the 5% volume of the drug solution in the final test plates.
For streptococci, lysed horse blood (Lot # H88621; Cleveland Scientific, Bath, Ohio) was added to the MHB II at a final concentration of 2%. […]
(§4) MIC values were determined using a broth microdilution method as recommended by the Clinical and Laboratory Standards Institute (Clinical and Laboratory Standards Institute^a. Methods for Dilution Antimicrobial Susceptibility Tests for Bacteria That Grow Aerobically; Approved Standard-Seventh Edition. Clinical and Laboratory Standards Institute document M7-A7 [ISBN 1-56238-587-9]. Clinical and Laboratory Standards Institute, 940 West Valley Road, Suite 1400, Wayne, Pa. 19087-1898 USA, 2006). Automated liquid handlers (Multidrop 384, Labsystems, Helsinki, Finland; Biomek 2000 and Multimek 96, Beckman Coulter, Fullerton Calif.) were used to conduct serial dilutions and make liquid transfers.
(§5) Wells of two standard 96-well microdilution plates (Falcon 3918; Becton Dickinson) were filled with 150 μL of […] using the Multidrop 384. These plates were used to prepare the drug “mother plates” that provided the serial drug dilutions for replicate “daughter plates”. The Biomek 2000 was used to transfer 150 μl of each stock solution from the wells of column 1 of a deep well plate to the corresponding wells in column 1 of the mother plate and to make eleven 2-fold serial dilutions in the mother plates. The wells of column 12 contained no drug and were the organism growth control wells. Each mother plate has the capacity to create a total of 12 daughter plates.
(§6) The daughter plates were loaded with 180 μL of one of the media described above using the Multidrop 384. The wells of the daughter plates ultimately contained 180 μL of MHB II, 10 μL of drug solution, and 10 μL of bacterial inoculum prepared in broth appropriate to the test organism (1.05×). The daughter plates were prepared on the Multimek 96 instrument, which transferred 10 μL of drug solution from each well of the mother plate to each corresponding well of each daughter plate in a single step.
Standardized inoculum of each organism was prepared following Clinical and Laboratory Standards Institute (Clinical and Laboratory Standards Institute^b. Performance Standards for Antimicrobial Susceptibility Testing; Sixteenth Informational Supplement. CLSI document M100-S16 [ISBN 1-56238-588-7]. Clinical and Laboratory Standards Institute, 940 West Valley Road, Suite 1400, Wayne, Pa. 19087-1898 USA, 2006) methods. The inoculum for each organism was dispensed into sterile reservoirs divided by length (Beckman Coulter), and the Biomek 2000 was used to inoculate the plates. […]

[2] = test system: Streptococcus pyogenes; assay: MIC, broth microdilution (CLSI); type: cell-based
Protocol: as §1, §2, §3
For streptococci, lysed horse blood (Lot # H88621; Cleveland Scientific, Bath, Ohio) was added to the MHB II at a final concentration of 2%.
(§7) CLSI guidelines recommend that Mueller-Hinton II broth be adjusted to contain 50 mg/L of Ca^++ ions for proper daptomycin MIC results. Since Mueller-Hinton II broth has already been adjusted by the manufacturer to contain approximately 25 mg/L of Ca^++ ions, an additional 25 mg/L of Ca^++ ions was adjusted with 10 mg/mL of CaCl2.2H2O (Lot# 084K0215; Sigma-Aldrich) added at a rate of 0.1 mL/L of broth, for each desired increment of 1 mg/L. This supplemented Mueller-Hinton II broth was used only in wells containing daptomycin.
as §4, §5
(§8) The daughter plates were loaded with 180 μL of one of the media described above using the Multidrop 384. The wells of the daughter plates ultimately contained 180 μL of MHB II, 10 μL of drug solution, and 10 μL of bacterial inoculum prepared in broth appropriate to the test organism (1.05×). The daughter plates were prepared on the Multimek 96 instrument, which transferred 10 μL of drug solution from each well of the mother plate to each corresponding well of each daughter plate in a single step. […]

[3] = test system: Staphylococcus epidermidis; assay: MIC, broth microdilution (CLSI); type: cell-based
Protocol: as §1, §2, §3, §7, §4, §5, §8

[4] = test system: Enterococcus faecalis; assay: MIC, broth microdilution (CLSI); type: cell-based
Protocol: as §1, §2, §3, §7, §4, §5, §8

[5] = test system: Enterococci; assay: MIC, broth microdilution, summary over Enterococci; type: cell-based; conditions: against Enterococci
Protocol: as §1
as §2, with “Staphylococcus aureus ATCC 29213 and Enterococcus faecalis ATCC 29212 were included as quality control isolates in the assay.” left out
(§9) MIC values were determined using a broth microdilution method as recommended by the Clinical and Laboratory Standards Institute (Clinical and Laboratory Standards Institute^a. Methods for Dilution Antimicrobial Susceptibility Tests for Bacteria That Grow Aerobically; Approved Standard-Seventh Edition. Clinical and Laboratory Standards Institute document M7-A7 [ISBN 1-56238-587-9]. Clinical and Laboratory Standards Institute, 940 West Valley Road, Suite 1400, Wayne, Pa. 19087-1898 USA, 2006). […]

[6] = test system: Enterococcus faecium; assay: MIC, broth microdilution (CLSI); type: cell-based
Protocol: (§10) The stock solutions were allowed to stand in DIW for one hour at room temperature prior to testing to allow time for auto-sterilization.
as §2, §3, §7, §4, §5, §6

[7] = test system: Staphylococcus aureus; assay: MIC, broth microdilution (CLSI); type: cell-based
Protocol: as §10, §2, §3, §7, §4, §5, §6

[8] = test system: staphylococci; assay: MIC, broth microdilution, summary over staphylococci; type: cell-based; conditions: against staphylococci
Protocol: as §1
as §2, with “Staphylococcus aureus ATCC 29213 and Enterococcus faecalis ATCC 29212 were included as quality control isolates in the assay.” left out
as §9

[9] = test system: Staphylococcus aureus; conditions: quality control range for Staphylococcus aureus ATCC 29213 (# 100); cited from earlier work
[10] = test system: Enterococcus faecalis; conditions: quality control range for Enterococcus faecalis ATCC 29212 (# 101); cited from earlier work
[11] = Streptococcus pyogenes Micromyx # 942, macrolide^R

Empedopeptin
MIC ([1]; Streptococcus pneumoniae Micromyx # 374, Wild type): 1 µg/mL
MIC ([1]; Streptococcus pneumoniae Micromyx # 375, parC, gyrB): 2 µg/mL
MIC ([1]; Streptococcus pneumoniae Micromyx # 376, parC, gyrA): 2 µg/mL
MIC ([1]; Streptococcus pneumoniae Micromyx # 379, parC, gyrA, gyrB): 2 µg/mL
MIC ([1]; Streptococcus pneumoniae Micromyx # 927, mef(A)): <0.12 µg/mL
MIC ([1]; Streptococcus pneumoniae Micromyx # 928, erm(B)): 0.5 µg/mL
MIC range ([1]; all strains of S. pneumoniae): ≦0.12-2 μg/mL
MIC [2, 11]: ≦0.12 μg/mL
MIC ([2]; Streptococcus pyogenes Micromyx # 985, Susceptible): ≦0.12 μg/mL
MIC ([2]; both S. pyogenes test strains (including the macrolide-resistant strain)): ≤ 0.12 µg/mL
MIC ([3]; Staphylococcus epidermidis Micromyx # 108, MRSE): 8 µg/mL
MIC ([3]; Staphylococcus epidermidis Micromyx # 835, MSSE): 8 µg/mL
MIC ([4]; Enterococcus faecalis Micromyx # 101, VSE, CLSI QC strain (ATCC 29212)): 4 µg/mL
MIC ([4]; Enterococcus faecalis Micromyx # 413, LZD^R from res. dev. or other): 8 µg/mL
MIC ([4]; Enterococcus faecalis Micromyx # 486, Van A): 8 µg/mL
MIC ([4]; Enterococcus faecalis Micromyx # 1088, Van B): 16 µg/mL
range of MIC values ([5]; all strains tested): 4 to 32 µg/mL
MIC, most strains inhibited ([5]; most strains): 8 to 16 µg/mL
MIC ([6]; Enterococcus faecium Micromyx # 750, Van^S): 8 µg/mL
MIC ([6]; Enterococcus faecium Micromyx # 752, Van A): 16 µg/mL
MIC ([6]; Enterococcus faecium Micromyx # 1120, Van B): 16 µg/mL
MIC ([6]; Enterococcus faecium Micromyx # 1721, DAP^R): 32 µg/mL
MIC ([7]; Staphylococcus aureus Micromyx # 100, MSSA, CLSI QC strain (ATCC 29213)): 4 µg/mL
MIC ([7]; Staphylococcus aureus Micromyx # 106, RA^R): 0.5 µg/mL
MIC ([7]; Staphylococcus aureus Micromyx # 1002, MSSA, macrolide^R): 4 µg/mL
MIC ([7]; Staphylococcus aureus Micromyx # 1004, MRSA, FA^R): 8 µg/mL
MIC ([7]; Staphylococcus aureus Micromyx # 1016, FA^R): 8 µg/mL
MIC ([7]; Staphylococcus aureus Micromyx # 1651, LZD^R clinical isolate): 4 µg/mL
MIC ([7]; Staphylococcus aureus Micromyx # 1723, VISA): 4 µg/mL
MIC ([7]; Staphylococcus aureus Micromyx # 1727, GM^R): 8 µg/mL
MIC ([7]; Staphylococcus aureus Micromyx # 1730, Community-acquired MRSA): 4 µg/mL
MIC ([7]; Staphylococcus aureus Micromyx # 1731, CHL^R): 4 µg/mL
MIC values in the range ([8]; all strains tested): 0.5 to 8 µg/mL
MIC, majority of strains inhibited ([8]; majority of strains): 4 to 8 µg/mL

CN[C@H](CC(C)C)C(=O)N[C@H]1C(=O)N[C@@H](CC(N)=O)C(=O)N[C@H]2C(=O)N[C@H]3C(=O)N[C@H](C(=O)N[C@H](C(=O)O)c4cc(O)cc(O)c4-c4cc3ccc4O)[C@H](O)c3ccc(c(Cl)c3)Oc3cc2cc(c3O[C@@H]2O[C@H](CO)[C@@H](O)[C@H](O)[C@H]2O[C@H]2C[C@](C)(N)[C@H](O)[C@H](C)O2)Oc2ccc(cc2Cl)[C@H]1O [Vancomycin, vancomycin]
MIC ([1]; Streptococcus pneumoniae, Streptococcus pneumoniae Micromyx # 374, Wild type): 0.5 µg/mL (≈ 0.345 µM)
MIC ([1]; Streptococcus pneumoniae, Streptococcus pneumoniae Micromyx # 375, parC, gyrB): 0.5 µg/mL (≈ 0.345 µM)
MIC ([1]; Streptococcus pneumoniae, Streptococcus pneumoniae Micromyx # 376, parC, gyrA): 0.25 µg/mL (≈ 0.173 µM)
MIC ([1]; Streptococcus pneumoniae, Streptococcus pneumoniae Micromyx # 379, parC, gyrA, gyrB): 0.5 µg/mL (≈ 0.345 µM)
MIC ([1]; Streptococcus pneumoniae, Streptococcus pneumoniae Micromyx # 927, mef(A)): 0.5 µg/mL (≈ 0.345 µM)
MIC ([1]; Streptococcus pneumoniae, Streptococcus pneumoniae Micromyx # 928, erm(B)): 0.5 µg/mL (≈ 0.345 µM)
MIC, CLSI Recommended Range [9]: 0.5 to 2 µg/mL
MIC ([2]; Streptococcus pyogenes): 0.5 µg/mL (≈ 0.345 µM)
MIC [2, 11]: 0.5 µg/mL (≈ 0.345 µM)
MIC, CLSI Recommended Range [10]: 1 to 4 µg/mL
MIC ([3]; Staphylococcus epidermidis): 2 µg/mL (≈ 1.38 µM)
MIC ([3]; Staphylococcus epidermidis, MRSE): 4 µg/mL (≈ 2.76 µM)
MIC ([4]; Enterococcus faecalis, ATCC29212, Enterococcus faecalis Micromyx # 101, VSE, CLSI QC strain (ATCC 29212)): 4 µg/mL (≈ 2.76 µM)
MIC ([4]; Enterococcus faecalis, Enterococcus faecalis Micromyx # 413, LZD^R from res. dev. or other): 2 µg/mL (≈ 1.38 µM)
MIC ([4]; Enterococcus faecalis, Enterococcus faecalis Micromyx # 486, Van A): > 128 µg/mL
MIC ([4]; Enterococcus faecalis, Enterococcus faecalis Micromyx # 1088, Van B): 128 µg/mL (≈ 88.3 µM)
MIC ([6]; Enterococcus faecium, Enterococcus faecium Micromyx # 750, Van^S): 1 µg/mL (≈ 0.69 µM)
MIC ([6]; Enterococcus faecium, Enterococcus faecium Micromyx # 752, Van A): > 128 µg/mL
MIC ([6]; Enterococcus faecium, Enterococcus faecium Micromyx # 1120, Van B): 32 µg/mL (≈ 22.1 µM)
MIC ([6]; Enterococcus faecium, Enterococcus faecium Micromyx # 1721, DAP^R): > 128 µg/mL
MIC ([7]; Staphylococcus aureus, ATCC 29213 / MSSA, Staphylococcus aureus Micromyx # 100, MSSA, CLSI QC strain (ATCC 29213)): 2 µg/mL (≈ 1.38 µM)
MIC ([7]; Staphylococcus aureus, MRSA, Staphylococcus aureus Micromyx # 1004, MRSA, FA^R): 1 µg/mL (≈ 0.69 µM)
MIC ([7]; Staphylococcus aureus, MRSA, Staphylococcus aureus Micromyx # 1730, Community-acquired MRSA): 2 µg/mL (≈ 1.38 µM)
MIC ([7]; Staphylococcus aureus, MSSA, Staphylococcus aureus Micromyx # 1002, MSSA, macrolide^R): 1 µg/mL (≈ 0.69 µM)
MIC ([7]; Staphylococcus aureus, Staphylococcus aureus Micromyx # 106, RA^R): 1 µg/mL (≈ 0.69 µM)
MIC ([7]; Staphylococcus aureus, Staphylococcus aureus Micromyx # 1016, FA^R): 1 µg/mL (≈ 0.69 µM)
MIC ([7]; Staphylococcus aureus, Staphylococcus aureus Micromyx # 1651, LZD^R clinical isolate): 1 µg/mL (≈ 0.69 µM)
MIC ([7]; Staphylococcus aureus, Staphylococcus aureus Micromyx # 1727, GM^R): 1 µg/mL (≈ 0.69 µM)
MIC ([7]; Staphylococcus aureus, Staphylococcus aureus Micromyx # 1731, CHL^R): 1 µg/mL (≈ 0.69 µM)
MIC ([7]; Staphylococcus aureus, VISA, Staphylococcus aureus Micromyx # 1723, VISA): 8 µg/mL (≈ 5.52 µM)
